According to US20240150303A1, “DIAMINOTRIAZINE COMPOUNDS” (BASF SE, priority 2021, published 2024):

Columns and labels:
Test in all cases: greenhouse pre-emergence herbicidal test
Format in all cases: in vivo
Echinocloa crus-galli = system: Echinocloa crus-galli
Source text: (§1) The seeds of the test plants were sown separately for each species. For the pre-emergence treatment, the active ingredients, which had been suspended or emulsified in water, were applied directly after sowing by means of finely distributing nozzles. The containers were irrigated gently to promote germination and growth and subsequently covered with transparent plastic hoods until the plants had rooted. This cover caused uniform germination of the test plants, unless this had been impaired by the active ingredients. […] The test period extended over 2 to 4 weeks. During this time, the plants were tended, and their response to the individual treatments was evaluated. Evaluation was carried out using a scale from 0 to 100. 100 means no emergence of the plants, or complete destruction of at least the aerial moieties, and 0 means no damage, or normal course of growth. A moderate herbicidal activity is given at values of at least 60, a good herbicidal activity is given at values of at least 70, and a very good herbicidal activity is given at values of at least 85. The plants used in the greenhouse experiments were of the following species: [table]

Setaria faberi = system: Setaria faberi
Source text: as §1

Amaranthus retroflexus = system: Amaranthus retroflexus
Source text: as §1

Abutilon theophrasti = system: Abutilon theophrasti
Source text: The culture containers used were plastic flowerpots containing loamy sand with approximately 3.0% of humus as the substrate. The seeds of the test plants were sown separately for each species.
For the pre-emergence treatment, the active ingredients, which had been suspended or emulsified in water, were applied directly after sowing by means of finely distributing nozzles.
The containers were irrigated gently to promote germination and growth and subsequently covered with transparent plastic hoods until the plants had rooted. This cover caused uniform germination of the test plants, unless this had been impaired by the active ingredients.
Depending on the species, the plants were kept at 10-25° C. or 20-35° C., respectively.
The test period extended over 2 to 4 weeks. During this time, the plants were tended, and their response to the individual treatments was evaluated.
Evaluation was carried out using a scale from 0 to 100. 100 means no emergence of the plants, or complete destruction of at least the aerial moieties, and 0 means no damage, or normal course of growth. A moderate herbicidal activity is given at values of at least 60, a good herbicidal activity is given at values of at least 70, and a very good herbicidal activity is given at values of at least 85.
The plants used in the greenhouse experiments were of the following species: […]

Measured: herbicidal activity

CC(F)c1nc(N)nc(Nc2c(Cl)cccc2OC(F)F)n1 (racemic) [Example 95]
100%: Echinocloa crus-galli; 62 g/ha | Setaria faberi; 62 g/ha | Amaranthus retroflexus; 62 g/ha | Abutilon theophrasti; 62 g/ha

COc1c(Br)cc(Cl)c(C)c1Nc1nc(N)nc(C(C)(F)CBr)n1 (racemic) [Example 99]
100%: Setaria faberi; 62 g/ha | Amaranthus retroflexus; 62 g/ha | Abutilon theophrasti; 62 g/ha

Cc1c(Br)cc(F)c(OCc2ccccc2)c1Nc1nc(N)nc(C(C)(C)F)n1 [Example 6]
85%: Echinocloa crus-galli; 250 g/ha
100%: Echinocloa crus-galli; 125 g/ha | Setaria faberi; 125 g/ha | Setaria faberi; 250 g/ha | Abutilon theophrasti; 125 g/ha | Abutilon theophrasti; 250 g/ha

COc1c(F)cc(F)c(Cl)c1Nc1nc(N)nc(C(C)(C)F)n1 [Example 9]
95%: Setaria faberi; 250 g/ha
90%: Abutilon theophrasti; 250 g/ha
100%: Echinocloa crus-galli; 32 g/ha | Amaranthus retroflexus; 32 g/ha | Amaranthus retroflexus; 250 g/ha | Abutilon theophrasti; 32 g/ha

COc1c(F)ccc(C)c1Nc1nc(N)nc(C(C)(C)F)n1 [Example 16]
100%: Echinocloa crus-galli; 62 g/ha | Echinocloa crus-galli; 250 g/ha | Amaranthus retroflexus; 62 g/ha | Amaranthus retroflexus; 250 g/ha | Abutilon theophrasti; 62 g/ha | Abutilon theophrasti; 250 g/ha

COc1c(C)ccc(C)c1Nc1nc(N)nc(C(C)(C)OC)n1 [Example 17]
100%: Echinocloa crus-galli; 250 g/ha | Amaranthus retroflexus; 250 g/ha | Abutilon theophrasti; 250 g/ha

COc1c(C)ccc(C)c1Nc1nc(N)nc(C(C)F)n1 (stereo not drawn) [Example 18]
100%: Echinocloa crus-galli; 62.5 g/ha | Echinocloa crus-galli; 250 g/ha | Amaranthus retroflexus; 62.5 g/ha | Amaranthus retroflexus; 250 g/ha | Abutilon theophrasti; 62.5 g/ha | Abutilon theophrasti; 250 g/ha

COc1c(Br)cc(F)c(Cl)c1Nc1nc(N)nc(C(C)(C)F)n1 [Example 29]
100%: Setaria faberi; 31 g/ha | Setaria faberi; 62 g/ha | Amaranthus retroflexus; 31 g/ha | Amaranthus retroflexus; 62 g/ha | Abutilon theophrasti; 31 g/ha | Abutilon theophrasti; 62 g/ha

COc1c(Cl)cc(Cl)c(C)c1Nc1nc(N)nc(C(C)(C)F)n1 [Example 34]
100%: Echinocloa crus-galli; 62.5 g/ha | Amaranthus retroflexus; 62.5 g/ha | Abutilon theophrasti; 62.5 g/ha

COc1c(Br)cc(Br)c(C)c1Nc1nc(N)nc(C(C)(C)F)n1 [Example 38]
100%: Echinocloa crus-galli; 62.5 g/ha | Setaria faberi; 62.5 g/ha | Setaria faberi; 250 g/ha | Amaranthus retroflexus; 62.5 g/ha | Amaranthus retroflexus; 250 g/ha | Abutilon theophrasti; 250 g/ha

COc1c(Br)cc(Cl)c(C)c1Nc1nc(N)nc(C(C)(C)F)n1 [Example 39]
100%: Echinocloa crus-galli; 62.5 g/ha | Setaria faberi; 62 g/ha | Setaria faberi; 62.5 g/ha | Amaranthus retroflexus; 62 g/ha | Amaranthus retroflexus; 62.5 g/ha | Abutilon theophrasti; 62 g/ha

COc1c(Br)cc(F)c(Cl)c1Nc1nc(N)nc(C2(F)CCCC2)n1 [Example 40]
100%: Echinocloa crus-galli; 62 g/ha | Echinocloa crus-galli; 62.5 g/ha | Setaria faberi; 62 g/ha | Setaria faberi; 62.5 g/ha | Amaranthus retroflexus; 62.5 g/ha | Abutilon theophrasti; 62 g/ha

COc1c(Br)cc(F)c(Cl)c1Nc1nc(N)nc(C(C)F)n1 (stereo not drawn) [Example 41]
100%: Echinocloa crus-galli; 62 g/ha | Echinocloa crus-galli; 62.5 g/ha | Setaria faberi; 62 g/ha | Setaria faberi; 62.5 g/ha | Amaranthus retroflexus; 62.5 g/ha | Abutilon theophrasti; 62 g/ha

COc1c(F)ccc(Cl)c1Nc1nc(N)nc(C(C)(C)F)n1 [Example 49]
100%: Echinocloa crus-galli; 62 g/ha | Echinocloa crus-galli; 62.5 g/ha | Amaranthus retroflexus; 62 g/ha | Amaranthus retroflexus; 62.5 g/ha | Abutilon theophrasti; 62 g/ha | Abutilon theophrasti; 62.5 g/ha

C#CCOc1c(F)ccc(Cl)c1Nc1nc(N)nc(C(C)(C)F)n1 [Example 50]
100%: Echinocloa crus-galli; 62 g/ha | Setaria faberi; 31 g/ha | Amaranthus retroflexus; 31 g/ha | Amaranthus retroflexus; 62 g/ha | Abutilon theophrasti; 62 g/ha
80%: Abutilon theophrasti; 31 g/ha

CC#CCOc1c(F)ccc(Cl)c1Nc1nc(N)nc(C(C)(C)F)n1 [Example 51]
100%: Echinocloa crus-galli; 62 g/ha | Setaria faberi; 62 g/ha | Amaranthus retroflexus; 62 g/ha | Abutilon theophrasti; 62 g/ha

COc1c(F)cc(C)c(Cl)c1Nc1nc(N)nc(C(C)(C)F)n1 [Example 55]
100%: Echinocloa crus-galli; 62 g/ha | Echinocloa crus-galli; 62.5 g/ha | Setaria faberi; 62 g/ha | Amaranthus retroflexus; 62.5 g/ha | Abutilon theophrasti; 62 g/ha | Abutilon theophrasti; 62.5 g/ha

C#CCOc1c(F)cc(C)c(Cl)c1Nc1nc(N)nc(C(C)(C)F)n1 [Example 56]
100%: Echinocloa crus-galli; 62 g/ha | Setaria faberi; 62 g/ha | Setaria faberi; 62.5 g/ha | Abutilon theophrasti; 62 g/ha
90%: Echinocloa crus-galli; 62.5 g/ha | Abutilon theophrasti; 62.5 g/ha

CC#CCOc1c(F)cc(C)c(Cl)c1Nc1nc(N)nc(C(C)(C)F)n1 [Example 57]
98%: Abutilon theophrasti; 31 g/ha
100%: Echinocloa crus-galli; 31 g/ha | Echinocloa crus-galli; 62 g/ha | Setaria faberi; 31 g/ha | Setaria faberi; 62 g/ha | Amaranthus retroflexus; 62 g/ha

COc1c(F)cc(Br)c(Cl)c1Nc1nc(N)nc(C(C)(C)F)n1 [Example 58]
100%: Echinocloa crus-galli; 62 g/ha | Echinocloa crus-galli; 62.5 g/ha | Setaria faberi; 62 g/ha | Setaria faberi; 62.5 g/ha | Amaranthus retroflexus; 62 g/ha | Abutilon theophrasti; 62.5 g/ha

COc1c(Br)ccc(C)c1Nc1nc(N)nc(C(C)(C)F)n1 [Example 62]
100%: Echinocloa crus-galli; 31 g/ha | Echinocloa crus-galli; 62 g/ha | Setaria faberi; 31 g/ha | Amaranthus retroflexus; 31 g/ha | Amaranthus retroflexus; 62 g/ha | Abutilon theophrasti; 62 g/ha

CC#CCOc1c(Cl)cc(C)c(Cl)c1Nc1nc(N)nc(C(C)(C)F)n1 [Example 65]
100%: Echinocloa crus-galli; 62 g/ha | Setaria faberi; 62 g/ha | Abutilon theophrasti; 62 g/ha

COc1c(Cl)cc(F)c(C)c1Nc1nc(N)nc(C(C)(F)CBr)n1 (stereo not drawn) [Example 66]
100%: Echinocloa crus-galli; 62 g/ha | Setaria faberi; 62 g/ha | Amaranthus retroflexus; 62 g/ha | Abutilon theophrasti; 62 g/ha

COc1c(Cl)cc(F)c(C)c1Nc1nc(N)nc(C(C)(F)F)n1 [Example 67]
100%: Echinocloa crus-galli; 62 g/ha | Setaria faberi; 62 g/ha | Amaranthus retroflexus; 62 g/ha | Abutilon theophrasti; 62 g/ha

COc1c(Cl)cc(F)c(C)c1Nc1nc(N)nc(C(C)(F)CCl)n1 (stereo not drawn) [Example 68]
100%: Echinocloa crus-galli; 62 g/ha | Setaria faberi; 62 g/ha | Amaranthus retroflexus; 62 g/ha | Abutilon theophrasti; 62 g/ha

COc1c(Cl)cc(F)c(C)c1Nc1nc(N)nc(C(C)F)n1 (stereo not drawn) [Example 69]
100%: Echinocloa crus-galli; 62 g/ha | Setaria faberi; 62 g/ha | Amaranthus retroflexus; 62 g/ha | Abutilon theophrasti; 62 g/ha

CCC(C)(F)c1nc(N)nc(Nc2c(C)c(F)cc(Br)c2OC)n1 (stereo not drawn) [Example 79]
100%: Setaria faberi; 62 g/ha | Amaranthus retroflexus; 62 g/ha | Abutilon theophrasti; 62 g/ha

CCC(C)(F)c1nc(N)nc(Nc2c(C)c(F)cc(Cl)c2OC)n1 (stereo not drawn) [Example 81]
100%: Echinocloa crus-galli; 62 g/ha | Setaria faberi; 62 g/ha | Abutilon theophrasti; 62 g/ha

COc1c(F)ccc(Cl)c1Nc1nc(N)nc(C(C)(F)F)n1 [Example 85]
98%: Setaria faberi; 62 g/ha
85%: Abutilon theophrasti; 62 g/ha
100%: Echinocloa crus-galli; 62 g/ha

COc1c(F)ccc(Cl)c1Nc1nc(N)nc(C(C)(F)CBr)n1 (stereo not drawn) [Example 86]
100%: Echinocloa crus-galli; 62 g/ha | Setaria faberi; 62 g/ha | Amaranthus retroflexus; 62 g/ha

COc1c(F)ccc(Cl)c1Nc1nc(N)nc(C(C)(C)OC)n1 [Example 87]
100%: Echinocloa crus-galli; 62 g/ha | Setaria faberi; 62 g/ha | Amaranthus retroflexus; 62 g/ha

CC#CCOc1c(F)ccc(Cl)c1Nc1nc(N)nc(C(C)(F)F)n1 [Example 88]
100%: Echinocloa crus-galli; 62 g/ha | Setaria faberi; 62 g/ha | Amaranthus retroflexus; 62 g/ha

CC#CCOc1c(F)ccc(Cl)c1Nc1nc(N)nc(C(F)C(C)C)n1 (stereo not drawn) [Example 89]
100%: Echinocloa crus-galli; 62 g/ha | Setaria faberi; 62 g/ha | Amaranthus retroflexus; 62 g/ha

CC#CCOc1c(F)ccc(Cl)c1Nc1nc(N)nc(C(C)(C)OC)n1 [Example 90]
100%: Echinocloa crus-galli; 62 g/ha | Setaria faberi; 62 g/ha | Amaranthus retroflexus; 62 g/ha

CC#CCOc1c(F)ccc(Cl)c1Nc1nc(N)nc(C(C)(F)CBr)n1 (stereo not drawn) [Example 91]
100%: Echinocloa crus-galli; 62 g/ha | Setaria faberi; 62 g/ha | Amaranthus retroflexus; 62 g/ha

Nc1nc(Nc2c(Cl)cccc2OC(F)F)nc(C2(F)CCCC2)n1 [Example 94]
100%: Echinocloa crus-galli; 62 g/ha | Setaria faberi; 62 g/ha | Amaranthus retroflexus; 62 g/ha
